Data on three molecules can be found in ChEMBL document CHEMBL1157212, “Classification of estrogen receptor-beta ligands on the basis of their binding affinities using support vector machine and linear discriminant analysis” (Eur J Med Chem, 2008).

The target in the assay is Estrogen receptor beta (Homo sapiens, UniProt Q92731).
Chain of Estrogen receptor beta (Q92731 whole entry): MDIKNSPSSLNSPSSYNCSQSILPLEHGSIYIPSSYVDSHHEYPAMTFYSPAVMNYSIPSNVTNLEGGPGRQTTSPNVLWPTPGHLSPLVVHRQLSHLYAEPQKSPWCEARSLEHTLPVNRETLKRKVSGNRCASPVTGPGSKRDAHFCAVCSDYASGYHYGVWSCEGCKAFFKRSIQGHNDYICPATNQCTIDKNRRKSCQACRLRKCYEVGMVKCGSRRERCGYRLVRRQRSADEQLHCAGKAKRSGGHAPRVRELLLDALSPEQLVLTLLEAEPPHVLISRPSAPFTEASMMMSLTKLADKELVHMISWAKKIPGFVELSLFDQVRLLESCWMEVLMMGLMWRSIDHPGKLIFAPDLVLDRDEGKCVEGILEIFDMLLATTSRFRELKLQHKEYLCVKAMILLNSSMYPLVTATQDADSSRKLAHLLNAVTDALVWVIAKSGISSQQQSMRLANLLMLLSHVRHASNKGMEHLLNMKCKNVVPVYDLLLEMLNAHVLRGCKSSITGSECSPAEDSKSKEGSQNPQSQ

Description: Binding affinity to ERbeta

For `Oc1ccc(-c2nc3cc(O)cc(Br)c3o2)c(C(F)(F)F)c1`, the IC50 (commonly the concentration that gives 50% inhibition) is 1.4 nM. This lies in the single-digit nanomolar range.

`O=C(O)c1cc(O)cc2nc(-c3ccc(O)cc3)oc12` yielded a concentration for half-maximal inhibition (IC50) of 5000 nM.

With `C/C=C/c1cc(O)cc2nc(-c3ccc(O)cc3)oc12`, the IC50 was 142 nM.
